{"source": "patent US20040216174A1", "about": "“Screening assays for targets and drugs useful in treatment and prevention of lipid metabolism disorders” (priority 2003, published 2004)", "origin": "cited, not measured here", "test_system": "C. elegans", "conditions": "treatment with antioxidant"}
{"substance": "vitamin E", "values": [{"measurement": "effect on germline development", "result": "slows down germline development"}]}
